Experimental data as given in a melting point compilation (Tetko et al.; mined from patent text by program, amines drawn as free bases though some values may be those of a salt).

Structure (SMILES) | melting point [°C]
O=C(NCc1ccc(Cl)cc1)c1cn2c(CCO)cc3cc(CC4CCOCC4)cc(c1=O)c32 | 204 to 206
CCCCCCc1ccc(-n2c(-c3ccc(C)cc3)cc(OC)c2-c2ccc(C)cc2)cc1 | 128 to 130
COc1ccc(-c2cc(=O)n(CCc3ccc(OC)c(OC)c3)nc2-c2ccc(OC)cc2)cc1 | 131
CC(C)(C)OC(=O)c1ncn2c1CN(C(=O)N1CCOCC1)c1cc(F)ccc1-2 | 196
COc1cc(OC)c2c(c1)S(=O)(=O)N(CCl)C2=O | 185 to 187
CCC(CC)c1ccc(Cl)c2nc(Nc3cnc(OC)cc3C)n(CCCCO)c12 | 146 to 147
CN(C)CC1Cn2cc(C(=O)NCc3ccc(Cl)cc3)c(=O)c3cc(CN4CCOCC4)cc(c32)O1 (stereo unspecified) | 168 to 170
COCCN=Cc1cc(OC)c(OC)cc1[N+](=O)[O-] | 65 to 66
C=CCCC1(C(F)(F)F)OC(=O)Nc2ccc(Cl)cc21 (racemic) | 165 to 166
COc1cncc(-c2ccc(OC3SCC(OC(C)=O)C(OC(C)=O)C3OC(C)=O)cn2)c1 (stereo unspecified) | 155
COC(=O)CCc1cc2cc(F)c(Cl)cc2[nH]1 | 138 to 139
COC(=O)c1nccnc1Cl | 30
CCN1CC(OCC2(C)CC2)(C(F)(F)F)c2cc(Cl)ccc2NC1=O (stereo unspecified) | 171 to 172
OCc1cn(-c2ccc(Cl)c(C(F)(F)F)c2)cn1 | 148 to 153
CN1CCN(C(=O)OC2c3ccc(C(F)(F)F)cc3C(=O)N2c2ccc3ccc(Cl)nc3n2)CC1 (stereo unspecified) | 219
COc1cc(OC)c2c(=O)cc(-c3ccc(N(C)C)cc3)oc2c1C1=CCN(C)CC1 | 148 to 150
CCC(=O)N1CCC(CC(=O)N2CCC([C@H]3c4ncc(Br)cc4CCc4cc(Cl)cc(Br)c43)CC2)CC1 | 124
CCOC(=O)COc1ccc2[nH]ccc2c1 | 74 to 77
CN1CCC(Sc2ccc3[nH]c(=O)n(C)c3c2)CC1 | 196 to 198
CC(C)(C)c1cc(SC(Sc2cc(C(C)(C)C)c(O)c(C(C)(C)C)c2)Sc2cc(C(C)(C)C)c(O)c(C(C)(C)C)c2)cc(C(C)(C)C)c1O | 217 to 220
CC12CCC3C(CCC4CC=CCC43C)C1CC=C2I (stereo unspecified) | 71 to 72

Structure (SMILES) | melting point [°C]
CCOCc1nc2c(N)nc(C)c(C)c2n1CC(C)C | 110 to 112
CCc1nc2cc(C(C)=O)ccc2n1-c1ccc(CCOC(=O)NS(=O)(=O)c2ccc(C)cc2)cc1 | 188 to 190
COc1cc(OC)c2c(=O)[nH]c(-c3ccc(OCCO)c(-c4ccc(S(C)(=O)=O)cc4)n3)nc2c1 | > 300
CC1COC2(CCN(c3nc(=O)c4cc(C#N)cc([N+](=O)[O-])c4s3)CC2)O1 (stereo unspecified) | 251 to 253
CC(C)(C)CC(C)(C)c1ccc2c(c1)C(=O)NS2(=O)=O | 213 to 215
COC(=O)C1=C(C)NC(C)=C(C(=O)OCCc2ccc(O)cc2)C1c1cccc([N+](=O)[O-])c1 (stereo unspecified) | 107 to 109
O=c1oc2ccccc2c(O)c1C(Sc1ccc(Cl)cc1)c1cc(F)ccc1F (stereo unspecified) | 146 to 147
O=C(O)CCc1ccc(CCNS(=O)(=O)c2ccc(Cl)cc2)s1 | 127 to 130
CC(CCCO)C1CCC2C3C(O)CC4CC(O)CCC4(C)C3CCC12C (stereo unspecified) | 116 to 118
CCOC(=O)COC(c1cccc(-c2nnc(Nc3ccc(Cl)c(Cl)c3)s2)c1)c1cccc(C(F)(F)F)c1 (stereo unspecified) | 135 to 136
CC(C)(C)OC(=O)NCCNC(=O)c1ncsc1-c1cccc(I)c1 | 111 to 112
CC(=O)OC1CSC(Oc2ccc3c(c2)nnn3C)C(OC(C)=O)C1OC(C)=O (stereo unspecified) | 80
CC(C)(C)N1C(=O)c2ccc(C(=O)Cl)cc2S1(=O)=O | 185 to 186
COC(=O)c1ccc(Cl)c(C2(O)C(=O)N(Cc3ccc(OC)cc3OC)c3ccc(Cl)cc32)c1 (stereo unspecified) | 56
CCOC(=O)NC(=S)Nc1ncc(C(F)(F)F)cc1F | 99 to 100
COc1ccc(C2=NN(CC3CCCCC3)C(=O)[C@H]3CCCC[C@@H]23)cc1OC (relative stereo) | 137 to 139
O=C(CC[C@H]1CC[C@H](Nc2ncc3ncnc(Nc4ccc(F)c(Cl)c4)c3n2)CC1)N1CCCC1 | 187 to 192
[N-]=[N+]=CC(=O)[C@H](O)[C@@H](O)[C@@H](O)CO | 93 to 94
CCOC(=O)C(CC)Cc1ccc(NC(=O)c2ccc(Cl)cc2)cc1 (stereo unspecified) | 119 to 120
CCCCCCCNC(=O)N(C)c1ncc(-c2ccc(C[C@H](OCC)C(=O)O)cc2)s1 | 97

Now from value to compound:

melting point [°C] | Structure (SMILES)
49 to 51 | Cc1ccc(-c2cccs2)cc1C
152 to 153 | CC[C@H](O)C(=O)N1CCC(Oc2cc3ncnc(Nc4cccc(Cl)c4F)c3cc2OC)CC1
> 300 | O=C(Nc1cccc2c1C(=O)c1c-2n[nH]c1-c1ccc(C(=O)N2CCCC2)s1)NN1CCOCC1
67 to 70 | COc1ccc(CCN2CCC(C(O)(c3ccccc3)c3nc4ccccc4s3)CC2)cc1 (stereo unspecified)
97 | CC(C)(C)OC(=O)N1CCn2ccc(C#N)c2C1
166 to 168 | Nc1ccc2nc(-c3ccc(Cl)cc3)sc2c1
295 | O=c1cc2c(n[nH]1)-c1ccccc1C2
47 to 48 | C=C1N(CCCCCCC)C(=O)OC12CCN(Cc1ccccc1)CC2
148 to 149 | N#Cc1c(N)c(C#N)c(-c2ccccc2)c2c1CCC2
193 | N#CC1=C(C2CCCCC2)Nc2n[nH]cc2C1c1cccc(C#N)c1Br (stereo unspecified)
130 to 135 | Nc1nc(N)c(N)c(OCc2ccccc2)n1
295 to 296 | Nc1cc2[nH]c(=O)[nH]c2c2ccccc12
190 to 192 | O=C(O)c1cccc(-c2nn(Cc3ccccc3)c3ccccc23)c1
130 to 132 | COc1cc(NC2=NCC(c3ccccc3)O2)ccc1-c1cnco1 (stereo unspecified)
146 to 149 | CO[C@H]1C(=O)N(S(C)(=O)=O)[C@H]2CCN(C(=O)OCc3ccccc3)[C@H]12 (relative stereo)
188 | Cc1ccc2c(c1)c1c(OCC#N)cccc1n2Cc1ccccc1
314 to 315 | O=C1c2cccc3c4c(cc(c23)C(=O)N1O)COCO4
96 to 99 | O[C@@H](COc1cccc(-c2noc3ccsc23)c1)CN1CCN(c2ccccc2F)CC1
106 to 108 | CCN(CC)CCOc1ccc(Nc2ncc3c(n2)N(c2ccccc2)C(=O)N(c2ccc(Cl)cc2Cl)C3)cc1
129 to 130 | Cc1cc(SCCC#Cc2ccc(C(F)(F)F)cc2)ccc1OCC(=O)O
238 to 239 | CC1(C)CCc2c(N3CCOCC3)nc3sc4c(NCCc5ccccn5)ncnc4c3c2C1
284 to 286 | COc1ccccc1-c1c(N)c2ccc(Cl)cc2[nH]c1=O
38 to 40 | COc1ccc(C2(O)CCC3CN(Cc4ccccc4)CCC3C2)cc1 (stereo unspecified)
210 to 211 | CCOCc1nc2c(N)nc3ccccc3c2n1CCC1(O)CC1
208 | N#CC1=C(c2ccc(Br)s2)Nc2n[nH]cc2C1c1cccc2nonc12 (stereo unspecified)
109 | CC(=Cc1ccc2ccccc2c1)c1ccc(C)cc1
185 to 186 | FC(F)(F)c1ccc2nc3c(nc2c1)-c1cccc2cccc-3c12
242 to 243 | COc1cccc(OC)c1C(=O)NC(=S)NNC(=O)c1cnc2ccccc2c1

melting point [°C] | Structure (SMILES)
228 to 230 | CN(Cc1cccc2c1CN(C1CCC(=O)NC1=O)C2=O)C(=O)c1ccc(Cl)c(Cl)c1 (stereo unspecified)
133 to 134 | COC(=O)c1cc(N)c(N2CCCCC2)c(N)c1
117 to 121 | O=C(O)c1ccc(OCCNC(=O)C2Cc3ccccc3N2S(=O)(=O)c2ccc(-c3cc(C(F)(F)F)ccc3Cl)cc2)cc1 (stereo unspecified)
138 to 140 | Cc1cccc(S(=O)(=O)Nc2onc(C)c2Br)c1
160 | [N-]=[N+]=NC(=O)c1cn(C2CCN(Cc3ccccc3)C2)nn1 (stereo unspecified)
90.5 to 93 | CN(C)C(=O)N1CCSC1c1ccccc1OCCN1CCN(c2cccc(F)c2)CC1 (stereo unspecified)
123 to 125 | Cc1ccccc1C=C1CSCC(=Cc2ccccc2C)C1=O
> 300 | CN1CCN(c2c(F)cc3c(=O)c(C(=O)O)cn(-c4ccc(O)cc4)c3c2F)CC1
233 | CN1C(=O)CCC(C)(C)c2cc(Nc3ncc(Cl)c(N[C@H]4[C@@H](C(N)=O)[C@@H]5C=C[C@H]4C5)n3)ccc21
70.4 to 101 | NC(=O)N1c2ccccc2CC(O)c2ccccc21 (stereo unspecified)
155 to 157 | Cc1nc2c(OCc3cccs3)cccn2c1CC#N
251 to 254 | CC1(C)Oc2ccc(C3=NNC(=O)CC3)cc2NC1=O
> 300 | CC(C)CCn1ccc(-c2ccc(NC3CCOCC3)cc2)c(Cl)c1=O
220 | O=c1[nH]c(C(F)(F)F)nc2ccccc12
80 to 82 | COc1cc2ccc3c(OC)cccc3c2c(OC)c1OC
158 to 160 | CCC(CC)c1ccc(Cl)c2nc3n(c12)CCCCN3c1ccc(C(F)(F)F)cc1Br
202 to 204 | O=C(O)c1ccccc1-c1nc(-c2ccc(Cl)c(Cl)c2)no1
54 | COC(=O)[C@H](Cc1cc(F)cc(F)c1)NC(=O)OCc1ccccc1
138 to 140 | O=[N+]([O-])c1ccccc1NCc1cc(Cl)cc(Cl)c1
155 to 156 | COc1ccc(S(=O)(=O)Nc2cccc3cn[nH]c23)cc1
164 to 166 | COC(=O)c1ccc2c(c1)S(=O)(=O)c1ccccc1N=C2N1CCOCC1
145 to 147 | C=C1C(=C)C2OC1C1=C2Cc2c(cccc2OC)C1 (stereo unspecified)
> 260 | COc1cc(OC)c(-c2cc3ccccc3n2C)cc1C=CC(=O)c1ccc(S(=O)(=O)NO)cc1
168 to 169 | CC(C)(C)c1cc(CCc2ccccc2NC(=O)NC2CCCc3ccccc32)cc(C(C)(C)C)c1O (stereo unspecified)
129 to 130 | COc1cccc(CC(=O)O)c1OCCCc1cc(OC(C)C)nn1Cc1ccc2ccccc2n1
105 to 106 | Cc1nccn1-c1nc(-c2ccc(Cl)cc2)c(CCCN2C(=O)CN(C)C2=O)o1
123 to 124 | Cc1c(C)c2c(c(C)c1N)C(c1ccc(C(C)C)cc1)C1(CCN(C)CC1)O2 (stereo unspecified)
